In patent publication US20090136460A1 (VANDERBILT UNIVERSITY, priority 2007, published 2009):
Like-named read-outs stand apart in the source and are kept apart here.

Key:
HMVEC-c cells = experiment: cAMP accumulation in HMVEC-c cells; format: cell-based, human
Text: Primary cultures of human cardiac microvascular endothelial cells (HMVEC-c) were obtained from Cambrex (Walkersville, Md.), and cultured using EGM™-2 MV growth medium (Cambrex). HMVEC-c from passages 2 to 5 were used. Measurement of cAMP accumulation.

[1] = tested on: eEPC adhesion to MCEC-1 cells; experiment: eEPC adhesion to MCEC-1 cells under static conditions; format: cell-based, mouse
[2] = tested on: eEPC retention in isolated hearts; experiment: eEPC retention in isolated mouse hearts (Langendorff perfusion)
Method: Isolated mouse heart model. Six male C57Bl/6 mice (Jackson Laboratory, Bar Harbor, Me.) at age of 6-8 weeks were used. The study was conducted in accordance with the Guide for the Care and Use of Laboratory Animals as adopted and promulgated by the U.S. National Institutes of Health. Hearts were rapidly removed from mice anesthetized with inhalation of isoflurane. The aorta was cannulated and connected to a Langendorff apparatus. […] After a 30 min stabilization period, hearts were perfused with 1.5 mmol/L FITC-conjugated Helix pomatia lectin (Sigma) for 10 min to label endothelial cells of perfused vessels followed by a 10 min washing period with KH buffer. […] After washing with KH buffer for 10 min to remove unbound eEPCs, hearts were dissected, and placed on a microscopic stage. Retention of eEPCs in hearts was analyzed by taking 10 random images of the left ventricle using epifluorescence microscopy (20× objective). Area of EPC-emitted fluorescence was measured using NIH ImageJ software and normalized to the area of vascular endothelium stained with FITC-lectin.

A1 adenosine receptor [3] = target: T1, A1 adenosine receptor (Mus musculus, UniProt Q60612); details: cited from earlier work; for Ki: read-out: Affinity or potency at A1, mouse (m)
T1 sequence (Q60612 1-326): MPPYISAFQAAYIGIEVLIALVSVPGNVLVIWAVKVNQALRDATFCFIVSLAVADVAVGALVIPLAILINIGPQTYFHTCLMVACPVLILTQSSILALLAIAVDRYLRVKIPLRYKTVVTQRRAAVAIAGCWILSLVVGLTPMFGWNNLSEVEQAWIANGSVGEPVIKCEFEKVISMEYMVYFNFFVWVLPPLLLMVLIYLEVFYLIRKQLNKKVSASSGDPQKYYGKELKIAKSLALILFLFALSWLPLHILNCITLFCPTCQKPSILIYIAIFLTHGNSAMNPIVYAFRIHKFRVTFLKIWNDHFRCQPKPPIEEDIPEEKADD

A1 receptors [4] = target: T2, A1 receptors (Mus musculus, UniProt Q60612); experiment: Inhibition of forskolin-induced cAMP accumulation in MCEC-1 cells
T2 sequence (Q60612 1-326): T1 sequence (Q60612 1-326)

A1 receptors [5] = target: T2, A1 receptors; experiment: Inhibition of forskolin-stimulated cAMP accumulation in mouse eEPCs; details: for Affinity or potency at A1, mouse (m), current study, log / Affinity or potency (Ki, KD, KB, IC50 or EC50) at A1, mouse (m), current study: data from the current study (no reference); for Affinity or potency (Ki, KD, KB, IC50 or EC50) at A1, mouse (m), current study: 95% CI in parentheses
A2B adenosine receptor [6] = target: T3, A2B adenosine receptor (Mus musculus, UniProt Q60614); details: [9] Kreckler et al. (2006), transfected HEK 293, radioligand [3H]MRS1754, cited from earlier work
T3 sequence (Q60614 1-332): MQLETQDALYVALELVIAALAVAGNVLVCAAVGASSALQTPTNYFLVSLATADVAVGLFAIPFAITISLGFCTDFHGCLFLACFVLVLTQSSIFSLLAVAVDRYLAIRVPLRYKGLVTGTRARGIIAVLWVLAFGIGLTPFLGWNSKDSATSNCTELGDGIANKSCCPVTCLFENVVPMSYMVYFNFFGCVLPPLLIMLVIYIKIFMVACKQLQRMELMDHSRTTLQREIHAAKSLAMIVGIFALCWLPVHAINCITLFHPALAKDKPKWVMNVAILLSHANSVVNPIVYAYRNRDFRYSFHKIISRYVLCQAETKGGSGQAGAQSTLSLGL

A2A adenosine receptor [7] = target: A2A adenosine receptor (Mus musculus, UniProt Q60613); details: [9] Kreckler et al. (2006), transfected HEK 293, radioligand [125I]ZM241385, cited from earlier work
eEPCs = experiment: cAMP accumulation in mouse eEPCs (forskolin, NECA)
A1 adenosine receptor [8] = target: T4, A1 adenosine receptor (Homo sapiens, UniProt P30542); details: [14] Feoktistov et al, 2001, transfected CHO cells, radioligand [3H]DPCPX, cited from earlier work
T4 sequence (P30542 1-326): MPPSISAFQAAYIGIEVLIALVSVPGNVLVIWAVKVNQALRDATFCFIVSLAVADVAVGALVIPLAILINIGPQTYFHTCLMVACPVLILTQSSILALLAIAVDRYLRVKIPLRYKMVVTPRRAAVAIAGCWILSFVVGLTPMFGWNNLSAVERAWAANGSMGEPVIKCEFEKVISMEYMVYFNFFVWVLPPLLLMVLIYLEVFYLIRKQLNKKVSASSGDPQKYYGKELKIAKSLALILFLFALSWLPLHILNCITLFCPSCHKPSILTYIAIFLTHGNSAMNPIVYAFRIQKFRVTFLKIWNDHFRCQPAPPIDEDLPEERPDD

A2A adenosine receptor [9] = target: A2A adenosine receptor (Homo sapiens, UniProt P29274); details: [14] Feoktistov et al, 2001, transfected CHO cells, radioligand [3H]NECA, cited from earlier work
A2B adenosine receptor [10] = target: T5, A2B adenosine receptor (Homo sapiens, UniProt P29275); details: [14] Feoktistov et al, 2001, transfected HEK 293 or HEL cells, radioligand [3H]ZM241685, cited from earlier work
T5 sequence (P29275 1-332): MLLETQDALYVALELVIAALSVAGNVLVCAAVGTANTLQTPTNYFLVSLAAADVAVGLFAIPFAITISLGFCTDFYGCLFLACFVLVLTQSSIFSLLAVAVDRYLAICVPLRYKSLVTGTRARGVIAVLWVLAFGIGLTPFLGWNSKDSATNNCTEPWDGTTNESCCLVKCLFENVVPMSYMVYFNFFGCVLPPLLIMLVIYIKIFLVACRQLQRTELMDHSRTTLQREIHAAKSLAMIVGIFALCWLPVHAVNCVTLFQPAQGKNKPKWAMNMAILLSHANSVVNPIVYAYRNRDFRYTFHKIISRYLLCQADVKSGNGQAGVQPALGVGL

A2B receptors = target: T6, A2B receptors (Mus musculus, UniProt Q60614); experiment: NECA-stimulated cAMP accumulation in MCEC-1 cells
T6 sequence (Q60614 1-332): T3 sequence (Q60614 1-332)

[11] = [6] Maemoto et al. (1997), brain cortex, radioligand [3H]DPCPX
[12] = [9] Kreckler et al. (2006), transfected HEK 293, radioligand [125I]I-AB-MECA

Sequence of A2A adenosine receptor (Homo sapiens, UniProt P29274) (P29274 whole entry): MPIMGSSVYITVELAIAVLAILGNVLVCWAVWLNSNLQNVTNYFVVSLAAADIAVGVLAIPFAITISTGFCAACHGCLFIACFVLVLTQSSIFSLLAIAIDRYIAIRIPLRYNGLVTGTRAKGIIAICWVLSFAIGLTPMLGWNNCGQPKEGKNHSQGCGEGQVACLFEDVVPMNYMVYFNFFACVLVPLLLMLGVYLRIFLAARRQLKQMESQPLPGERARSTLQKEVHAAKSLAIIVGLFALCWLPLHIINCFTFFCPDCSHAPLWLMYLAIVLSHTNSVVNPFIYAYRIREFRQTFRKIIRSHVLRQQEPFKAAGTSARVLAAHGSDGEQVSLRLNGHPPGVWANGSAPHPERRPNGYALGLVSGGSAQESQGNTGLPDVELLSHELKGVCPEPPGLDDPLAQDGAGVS
Sequence of A2A adenosine receptor (Mus musculus, UniProt Q60613) (Q60613 whole entry): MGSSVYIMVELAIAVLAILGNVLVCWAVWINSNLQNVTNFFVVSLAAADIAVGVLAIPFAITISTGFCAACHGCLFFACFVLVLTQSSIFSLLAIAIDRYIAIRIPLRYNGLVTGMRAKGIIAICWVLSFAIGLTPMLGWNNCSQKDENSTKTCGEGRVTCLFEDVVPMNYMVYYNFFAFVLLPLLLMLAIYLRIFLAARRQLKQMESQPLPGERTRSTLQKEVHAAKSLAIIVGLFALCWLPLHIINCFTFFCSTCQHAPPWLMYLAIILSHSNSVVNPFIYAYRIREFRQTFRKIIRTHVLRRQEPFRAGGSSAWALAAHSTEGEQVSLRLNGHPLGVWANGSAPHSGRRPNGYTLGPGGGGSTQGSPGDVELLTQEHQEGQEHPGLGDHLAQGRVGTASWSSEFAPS

## CCNC(=O)[C@H]1O[C@@H](n2cnc3c(N)nc(NCCc4ccc(CCC(=O)O)cc4)nc32)[C@H](O)[C@@H]1O [CGS21680, 4-((N-ethyl-5′-carbamoyladenos-2-yl)-aminoethyl)-phenyl-propionic acid]
HMVEC-c cells
  Effect on cAMP accumulation in HMVEC-c: no significant effect
[1]; 30 minutes
  Effect on eEPC adhesion: virtually no effect
[2]; 3 nmol/L, compared with 10 μmol/L adenosine
  Effect on eEPC retention: considerably less effect
A1 adenosine receptor [3]; [11]
  Affinity or potency at A1, mouse (m), log: 28,200); −4.85 [6] log mol/L

## OC[C@H]1O[C@@H](n2cnc3c(NC4CCCC4)ncnc32)[C@H](O)[C@@H]1O [CPA, N^6-cyclopentyladenosine]
[1]; 10 nmol/L, 30 minutes, basal 4.5±0.3%
  eEPC adhesion: 7.4±0.6%
A1 adenosine receptor [3]; [11]
  Affinity or potency at A1, mouse (m), log: −8.5 log mol/L
  Ki: 3.3 nM
A1 receptors [4]; MCEC-1, presumably stimulation of A2B receptors
  Concentrations at which inhibition was reversed: > 100 nmol/L
A1 receptors [4]; selective (low nanomolar) concentrations, 1 μmol/L forskolin
  Effect on forskolin-stimulated adenylate cyclase in MCEC-1: inhibited forskolin-stimulated adenylate cyclase
A1 receptors [5]
  EC50: 1.3 nM
  Affinity or potency at A1, mouse (m), current study, log: −8.9 log mol/L
  Affinity or potency (Ki, KD, KB, IC50 or EC50) at A1, mouse (m), current study: 1.2 (0.6-2.4) nmol/L

## CCCn1c(=O)c2[nH]c(C3CCCC3)nc2n(CCC)c1=O [DPCPX, 8-cyclopentyl-1,3-dipropylxanthine]
A2B adenosine receptor [6]
  Affinity or potency at A2B, mouse (m), log: −7.1 log mol/L
A2B adenosine receptor [6]; read-out: Affinity or potency at A2B, mouse (m)
  Ki: 86 nM
A1 adenosine receptor [3]; [11]
  Affinity or potency at A1, mouse (m), log: −9.3 log mol/L
  Ki: 0.4 nM
A1 adenosine receptor [3]; [12]
  Affinity or potency at A1, mouse (m), log: −8.8 log mol/L
  Ki: 1.5 nM
A2A adenosine receptor [7]
  Affinity or potency at A2A, mouse (m), log: −6.2 log mol/L
A2A adenosine receptor [7]; read-out: Affinity or potency at A2A, mouse (m)
  Ki: 598 nM
A1 receptors [5]
  EC50: 1.5 nM
  Affinity or potency at A1, mouse (m), current study, log: −8.8 log mol/L

## C=C[C@@]1(C)CC(=O)[C@]2(O)[C@@]3(C)[C@@H](O)CCC(C)(C)[C@@H]3[C@H](O)[C@H](OC(C)=O)[C@@]2(C)O1 [Forskolin, forskolin]
eEPCs; Mus musculus, read-out: EC50, increase of cAMP levels in eEPCs
  EC50: 1100 nM
eEPCs; maximal increase from basal 4.3±0.7
  cAMP levels in eEPCs: 35±2 pmol per well

## CC(C)Cn1c(=O)[nH]c(=O)c2[nH]c(N3CCCC3)nc21 [IPDX, 3-isobutyl-8-pyrrolidinoxanthine]
[1]; Mus musculus, read-out: IC50, inhibition of NECA-induced eEPC adhesion
  IC50: 1600 nM
A1 adenosine receptor [8]
  Affinity or potency at A1, human (h), log: −4.6 log mol/L
A1 adenosine receptor [8]; read-out: Affinity or potency at A1, human (h)
  Ki: 24000 nM
A2A adenosine receptor [9]
  Affinity or potency at A2A, human (h), log: −4.4 log mol/L
A2A adenosine receptor [9]; read-out: Affinity or potency at A2A, human (h)
  Ki: 36000 nM
A2B adenosine receptor [10]
  Affinity or potency at A2B, human (h), log: −6.2 log mol/L
A2B adenosine receptor [10]; read-out: Affinity or potency at A2B, human (h)
  Ki: 625 nM
A2B receptors
  Kd: 603 nM
A2B receptors; NECA-induced cAMP accumulation in MCEC-1, simple competitive antagonism at A2B
  Schild analysis slope: 1.1
A2B receptors; data from the current study (no reference)
  Affinity or potency at A2B, mouse (m), current study, log: −6.2 log mol/L
A2B receptors; data from the current study (no reference), 95% CI in parentheses
  Affinity or potency (Ki, KD, KB, IC50 or EC50) at A2B, mouse (m), current study: 603 nM
A1 receptors [5]
  Affinity or potency at A1, mouse (m), current study, log: 24,870); −4.6 log mol/L
  Affinity or potency (Ki, KD, KB, IC50 or EC50) at A1, mouse (m), current study: m 20,000 (16,230- nmol/L

## OC[C@H]1O[C@@H](n2cnc3c(O)ncnc32)[C@H](O)[C@@H]1O [inosine]
[2]; 100 μmol/L
  Effect on eEPC retention: no effect

## Fucoidan
[1]; 10 μmol/L NECA
  Effect on NECA-dependent stimulation of eEPC adhesion: inhibited

## Pertussis toxin
[1]; eEPCs preincubated with pertussis toxin 12 hours
  Effect on TNF-α-induced eEPC adhesion: no effect
[1]; eEPCs preincubated with pertussis toxin 12 hours, 10 μmol/L NECA
  Effect on stimulation of adhesion induced by NECA: significantly attenuated but did not completely block
A1 receptors [5]; eEPCs preincubated with pertussis toxin for 12 hours
  Effect on ability of CPA to inhibit forskolin-stimulated adenylate cyclase: completely abrogated
